Experimental findings from patent publication US11332476B2, “Fms-like tyrosine kinase inhibitors” (3SM BIOTRON INC., priority 2018, dated 2022) are described below.

The assay addresses T1, FLT3 (Homo sapiens, UniProt P36888).
T1 sequence (P36888 27-993): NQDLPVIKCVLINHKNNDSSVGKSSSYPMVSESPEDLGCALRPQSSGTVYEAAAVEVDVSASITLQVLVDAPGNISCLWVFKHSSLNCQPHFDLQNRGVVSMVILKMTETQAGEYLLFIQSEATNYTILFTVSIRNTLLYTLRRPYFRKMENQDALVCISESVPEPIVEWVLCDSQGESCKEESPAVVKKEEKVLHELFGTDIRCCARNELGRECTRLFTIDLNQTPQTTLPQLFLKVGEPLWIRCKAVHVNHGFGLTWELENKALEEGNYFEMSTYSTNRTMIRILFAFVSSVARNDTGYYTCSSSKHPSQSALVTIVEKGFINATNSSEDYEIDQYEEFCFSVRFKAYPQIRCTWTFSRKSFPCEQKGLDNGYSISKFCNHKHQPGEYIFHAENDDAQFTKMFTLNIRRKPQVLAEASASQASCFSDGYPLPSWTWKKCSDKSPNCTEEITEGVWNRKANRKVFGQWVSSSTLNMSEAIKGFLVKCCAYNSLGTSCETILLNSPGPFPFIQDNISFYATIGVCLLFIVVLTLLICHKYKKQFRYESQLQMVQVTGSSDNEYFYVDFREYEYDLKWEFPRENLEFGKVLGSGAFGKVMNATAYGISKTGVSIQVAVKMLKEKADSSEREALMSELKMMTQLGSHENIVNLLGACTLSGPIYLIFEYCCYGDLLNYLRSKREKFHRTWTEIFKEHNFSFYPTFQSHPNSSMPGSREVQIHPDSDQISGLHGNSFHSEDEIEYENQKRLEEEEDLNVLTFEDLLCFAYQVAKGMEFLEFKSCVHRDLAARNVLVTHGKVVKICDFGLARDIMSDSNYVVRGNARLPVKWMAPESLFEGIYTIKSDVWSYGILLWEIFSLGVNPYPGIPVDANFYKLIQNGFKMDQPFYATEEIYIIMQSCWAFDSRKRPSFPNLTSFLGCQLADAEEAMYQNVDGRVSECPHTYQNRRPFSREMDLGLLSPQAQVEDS
Nature of the assay: Inhibition of FLT3, 33P-ATP kinase assay with filter-binding detection. The format is biochemical. To be noted: 33P-ATP 10 uM, 2 hours at room temperature, filter-binding method. The protocol:
Prepare indicated substrate in freshly prepared Base Reaction Buffer (20 mM Hepes (pH 7.5), 10 mM MgCl2, 1 mM EGTA, 0.02% Brij35, 0.02 mg/ml BSA, 0.1 mM Na3VO4, 2 mM DTT, 1% DMSO). Deliver any required cofactors to the substrate solution above. Deliver indicated kinase into the substrate solution and gently mix. The testing compounds in DMSO was added into the kinase reaction mixture by Acoustic technology (Echo550; nanoliter range) and incubated for 20 minutes at room temperature. Deliver 33P-ATP (specific activity […]) into the reaction mixture to initiate the reaction. Incubate kinase reaction for 2 hours at room temperature. Reactions are spotted onto P81 ion exchange paper. Detect kinase activity by filter-binding method.
Inhibition of FLT3 with 4-Quinolone Derivatives

`COc1cccc2c(=O)c3c(sc12)c(NCCCNCCO)nc1ccccc13` [compound 7225, 6-(3-(2-hydroxyethylamino)propylamino)-8-methoxy-12H-thiochromeno[2,3-c]quinolin-12-one] displayed an IC50 of 201 to 500 nM.
`O=c1c2cc(F)ccc2sc2c(NCc3cccnc3)nc3ccccc3c12` [compound 7748, 10-fluoro-6-(pyridin-3-ylmethylamino)-12H-thiochromeno[2,3-c]quinolin-12-one] had an IC50 above 1000 nM.
For `NCCCNc1nc2ccc(Cl)cc2c2c(=O)c3cc(F)ccc3sc12` [compound 7403, 6-((3-aminopropyl)amino)-2-chloro-10-fluoro-12H-thiochromeno[2,3-c]quinolin-12-one], the IC50 was above 1000 nM.
As to `CCNc1nc2ccccc2c2c(=O)c3cccc(F)c3sc12` [compound 7241, 6-(ethylamino)-8-fluoro-12H-thiochromeno[2,3-c]quinolin-12-one], the IC50 is above 1000 nM.
Turning to `COc1ccc2sc3c(N)nc4ccccc4c3c(=O)c2c1` [compound 7709, 6-Amino-10-methoxy-12H-thiochromeno[2,3-c]quinolin-12-one], the IC50 is above 1000 nM.
In turn, `O=c1c2cc(F)ccc2sc2c(Nc3cccnc3)nc3ccccc3c12` [compound 7761, 10-fluoro-6-(pyridin-3-ylamino)-12H-thiochromeno[2,3-c]quinolin-12-one] returned an IC50 above 1000 nM.
`COc1cccc2c(=O)c3c(sc12)c(NCCN)nc1ccccc13` [compound 7244, 6-(2-aminoethylamino)-8-methoxy-12H-thiochromeno[2,3-c]quinolin-12-one] displayed an IC50 below 51 nM.
The compound `NCCCNc1nc2ccccc2c2c(=O)c3cc(OC(F)(F)F)ccc3sc12` [compound 7203, 6-(3-aminopropylamino)-10-(trifluoromethoxy)-12H-thiochromeno[2,3-c]quinolin-12-one] had an IC50 above 1000 nM.
As to `O=c1c2cc(C(F)(F)F)ccc2sc2c(NCCCNCCO)nc3ccccc3c12` [compound 7214, 6-(3-(2-hydroxyethylamino)propylamino)-10-trifluoromethyl-12H-thiochromeno[2,3-c]quinolin-12-one], the IC50 was above 1000 nM.
On to `Nc1nc2ccccc2c2c(=O)c3ccc(Cl)cc3sc12` [compound 7723, 6-Amino-9-chloro-12H-thiochromeno[2,3-c]quinolin-12-one], for which the IC50 is above 1000 nM.
`O=c1c2cc(F)ccc2sc2c(NCCCNCCO)nc3ccc(Cl)cc3c12` [compound 7406, 2-chloro-10-fluoro-6-(3-(2-hydroxyethylamino)propylamino)-12H-thiochromeno[2,3-c]quinolin-12-one] registered an IC50 above 1000 nM.
For `Cc1ccc2sc3c(NCCN)nc4ccccc4c3c(=O)c2c1` [compound 7231, 6-(2-aminoethylamino)-10-methyl-12H-thiochromeno[2,3-c]quinolin-12-one], the IC50 was below 51 nM.
`COc1ccc2sc3c(NCCCNCCO)nc4ccccc4c3c(=O)c2c1` [compound 7712, 6-(3-(2-hydroxyethylamino)propylamino)-10-methoxy-12H-thiochromeno[2,3-c]quinolin-12-one] registered an IC50 of 501 to 1000 nM.
The compound `CCN1CCN(c2nc3ccccc3c3c(=O)c4cc(F)ccc4sc23)CC1` [compound 7757, 6-(4-ethylpiperazin-1-yl)-10-fluoro-12H-thiochromeno[2,3-c]quinolin-12-one] came in with an IC50 of 201 to 500 nM.
`COc1ccc2nc(NCCCNCCO)c3sc4ccc(F)cc4c(=O)c3c2c1` [compound 7407, 10-fluoro-6-(3-(2-hydroxyethylamino)propylamino)-2-methoxy-12H-thiochromeno[2,3-c]quinolin-12-one] had an IC50 above 1000 nM.
As for `O=c1c2cccc(Cl)c2sc2c(NCCCNCCO)nc3ccccc3c12` [compound 7716, 8-chloro-6-(3-(2-hydroxyethylamino)propylamino)-12H-thiochromeno[2,3-c]quinolin-12-one], the figure is 501 to 1000 nM; as for `NCCNc1nc2ccccc2c2c(=O)c3cc(Cl)ccc3sc12` [compound 7767, 6-(2-aminoethylamino)-10-cholor-12H-thiochromeno[2,3-c]quinolin-12-one], below 51 nM; as for `CCCNc1nc2ccccc2c2c(=O)c3cc(OC)ccc3sc12` [compound 7710, 10-methoxy-6-(propylamino)-12H-thiochromeno[2,3-c]quinolin-12-one], above 1000 nM.
Compound `O=c1c2cc(F)ccc2sc2c(NCCCO)nc3ccccc3c12` [compound 7729, 10-fluoro-6-(3-hydroxypropylamino)-12H-thiochromeno[2,3-c]quinolin-12-one] displayed a 50% inhibitory concentration (IC50) above 1000 nM.
Regarding `O=c1c2cc(F)ccc2sc2c(-n3cccc3)nc3ccccc3c12` [compound 7750, 10-fluoro-6-(1H-pyrrol-1-yl)-12H-thiochromeno[2,3-c]quinolin-12-one], the IC50 is above 1000 nM.
Turning to `COc1ccc2sc3c(NCCCO)nc4ccccc4c3c(=O)c2c1` [compound 7742, 10-methoxy-6-(3-hydroxypropylamino)-12H-thiochromeno[2,3-c]quinolin-12-one], the IC50 was above 1000 nM.
As for `COc1ccc2sc3c(NCCO)nc4ccccc4c3c(=O)c2c1` [compound 7733, 6-(2-Hydroxyethylamino)-10-methoxy-12H-thiochromeno[2,3-c]quinolin-12-one], the figure is above 1000 nM.
`NCCCNc1nc2ccccc2c2c(=O)c3cc(F)ccc3sc12` [compound 7707, 6-(3-aminopropylamino)-10-fluoro-12H-thiochromeno[2,3-c]quinolin-12-one] showed an IC50 below 51 nM.
With `NCCNc1nc2ccccc2c2c(=O)c3cc(F)ccc3sc12` [compound 7754, 6-(2-aminoethylamino)-10-fluoro-12H-thiochromeno[2,3-c]quinolin-12-one], the IC50 is below 51 nM.
In turn, `Cc1ccc2sc3c(NCCCNCCO)nc4ccccc4c3c(=O)c2c1` [compound 7215, 6-(3-(2-hydroxyethylamino)propylamino)-10-methyl-12H-thiochromeno[2,3-c]quinolin-12-one] gave an IC50 of 201 to 500 nM.
In turn, `NCCCNc1nc2ccccc2c2c(=O)c3cccc(F)c3sc12` [compound 7211, 6-(3-aminopropylamino)-8-fluoro-12H-thiochromeno[2,3-c]quinolin-12-one] showed a concentration for half-maximal inhibition (IC50) below 51 nM.
In the case of `O=c1c2cc(F)ccc2sc2c(NCCCNCCO)nc3ccc(F)cc3c12` [compound 7408, 2,10-difluoro-6-(3-(2-hydroxyethylamino)propylamino)-12H-thiochromeno[2,3-c]quinolin-12-one], the IC50 was above 1000 nM.
`CN(C)CCNc1nc2ccccc2c2c(=O)c3cc(F)ccc3sc12` [compound 7744, 6-(2-(dimethylamino)ethylamino)-10-fluoro-12H-thiochromeno[2,3-c]quinolin-12-one] returned an IC50 of 201 to 500 nM.
In the case of `NCCCNc1nc2ccccc2c2c(=O)c3cc(C(F)(F)F)ccc3sc12` [compound 7201, 6-(3-aminopropylamino)-10-trifluoromethyl-12H-thiochromeno[2,3-c]quinolin-12-one], the IC50 was above 1000 nM.
As for `CNCCCNc1nc2ccccc2c2c(=O)c3cc(F)ccc3sc12` [compound 7731, 10-fluoro-6-(3-(methylamino)propylamino)-12H-thiochromeno[2,3-c]quinolin-12-one], the figure is 201 to 500 nM.
Compound `Nc1nc2ccccc2c2c(=O)c3cccc(Cl)c3sc12` [compound 7713, 6-Amino-8-chloro-12H-thiochromeno[2,3-c]quinolin-12-one] yielded an IC50 above 1000 nM.
Compound `NCCCNc1nc2ccccc2c2c(=O)c3cc(F)cc(Cl)c3sc12` [compound 7213, 6-(3-aminopropylamino)-8-chloro-10-fluoro-12H-thiochromeno[2,3-c]quinolin-12-one] came in with an IC50 above 1000 nM.
The figure for `O=c1c2cc(F)ccc2sc2c(NCCCN3CCCC3)nc3ccccc3c12` [compound 7753, 10-fluoro-6-(3-(pyrrolidin-1-yl)propylamino)-12H-thiochromeno[2,3-c]quinolin-12-one] is above 1000 nM; for `O=c1c2cc(F)ccc2sc2c(NCCCNCCO)nc3ccccc3c12` [compound 7708, 10-fluoro-6-(3-(2-hydroxyethylamino)propylamino)-12H-thiochromeno[2,3-c]quinolin-12-one] it is 201 to 500 nM.

In general, IC50 refers to the concentration needed to halve the response being measured.
